{
  "source": "patent US6706718B2",
  "about": "“3-(2,4-dimethylthiazol-5-yl)indeno[1,2-c]pyrazol-4-one derivatives and their uses” (Bristol-Myers Squibb Company, priority 2000, dated 2004)",
  "note": "Structures can show the parent of a compound that is named as a salt.",
  "data": [
    {"smiles": "Cc1nc(C)c(-c2[nH]nc3c2C(=O)c2c(NC(=O)NN4CCOCC4)cccc2-3)s1", "note": "(as salt: TFA) [Example 2, 3-(2,4-dimethylthiazol-5-yl)-5-(morpholinocarbamoylamino)indeno[1,2-c]pyrazol-4-one]", "values": [
      {"measurement": "melting point", "value": "> 300", "unit": "°C"}
    ]},
    {"smiles": "Cc1nc(C)c(-c2[nH]nc3c2C(=O)c2c(NC(=O)NN4CCN(C)CC4)cccc2-3)s1", "note": "(as salt: hydrochloride)", "values": [
      {"measurement": "melting point", "value": 278, "unit": "°C"}
    ]}
  ]
}
